Where “and” joins values, the source holds several entries; their conditions need not be identical. Identical values can stand only once. Inconclusive results and toxic doses are left out.
Tested on: CD2F1 mice, L1210 leukemia sc, survival T/C
Assay: NCI In Vivo Anticancer Drug Screen. Data for tumor model L1210 Leukemia (subcutaneous) in CD2F1 (CDF1) mice
Details: higher = longer survival
Experimental: The antitumor activity of compounds was measured in mice bearing transplantable tumors. Survival or tumor size were measured and the results are expressed as the measurement made in the treated group (T) divided by the measurement made in the vehicle treated control group (C). The tumor model used in this assay is L1210 Leukemia (subcutaneous) in CD2F1 (CDF1) mice

CN(Cc1cnc2nc(N)nc(N)c2n1)c1ccc(C(=O)N[C@@H](CCC(=O)O)C(=O)O)cc1
T/C (endpoint: mean survival time, dose: 1.08 mg/kg/injection, schedule: Q01DX009 (sc), vehicle: other): 170 % of control
T/C (endpoint: mean survival time, dose: 1.8 mg/kg/injection, schedule: Q01DX009 (sc), vehicle: other): 158 % of control
T/C (endpoint: mean survival time, dose: 3.0 mg/kg/injection, schedule: Q01DX009 (sc), vehicle: other): 168 % of control
T/C (endpoint: mean survival time, dose: 5.0 mg/kg/injection, schedule: Q01DX017 (sc), vehicle: other): 124 % of control
T/C (endpoint: median survival time, dose: 0.08 mg/kg/injection, schedule: Q## X Z (sc), vehicle: other): 155 % of control
T/C (endpoint: median survival time, dose: 0.1 mg/kg/injection, schedule: Q#A X Z (oral), vehicle: other): 104 % of control
T/C (endpoint: median survival time, dose: 0.1 mg/kg/injection, schedule: Q#A X Z (sc), vehicle: other): 122 % of control
T/C (endpoint: median survival time, dose: 0.14 mg/kg/injection, schedule: Q## X Z (sc), vehicle: other): 155 % of control
T/C (endpoint: median survival time, dose: 0.16 mg/kg/injection, schedule: Q#A X Z (oral), vehicle: other): 109 % of control
T/C (endpoint: median survival time, dose: 0.23 mg/kg/injection, schedule: Q#A X Z (sc), vehicle: other): 122 % of control
T/C (endpoint: median survival time, dose: 0.25 mg/kg/injection, schedule: Q01DX Z (sc), vehicle: other): 112 % of control and 116 % of control
T/C (endpoint: median survival time, dose: 0.27 mg/kg/injection, schedule: Q01DX Z (oral), vehicle: other): 109 % of control
T/C (endpoint: median survival time, dose: 0.27 mg/kg/injection, schedule: Q#A X Z (oral), vehicle: other): 122 % of control
T/C (endpoint: median survival time, dose: 0.3 mg/kg/injection, schedule: Q01DX Z (sc), vehicle: sodium bicarbonate): 111 % of control
T/C (endpoint: median survival time, dose: 0.38 mg/kg/injection, schedule: Q01DX009 (ip), vehicle: sodium bicarbonate): 108 % of control
T/C (endpoint: median survival time, dose: 0.39 mg/kg/injection, schedule: Q01DX Z (ip), vehicle: other): 115 % of control
T/C (endpoint: median survival time, dose: 0.39 mg/kg/injection, schedule: Q01DX Z (iv), vehicle: other): 105 % of control
T/C (endpoint: median survival time, dose: 0.39 mg/kg/injection, schedule: Q01DX Z (oral), vehicle: other): 100 % of control
T/C (endpoint: median survival time, dose: 0.39 mg/kg/injection, schedule: Q02DX Z (sc), vehicle: other): 111 % of control
T/C (endpoint: median survival time, dose: 0.45 mg/kg/injection, schedule: Q01DX Z (oral), vehicle: other): 100 % of control
T/C (endpoint: median survival time, dose: 0.45 mg/kg/injection, schedule: Q#A X Z (sc), vehicle: other): 159 % of control
T/C (endpoint: median survival time, dose: 0.47 mg/kg/injection, schedule: Q01DX Z (oral), vehicle: other): 111 % of control
T/C (endpoint: median survival time, dose: 0.48 mg/kg/injection, schedule: Q01DX Z (oral), vehicle: other): 100 % of control
T/C (endpoint: median survival time, dose: 0.5 mg/kg/injection, schedule: Q01DX009 (ip), vehicle: sodium bicarbonate): 112 % of control
T/C (endpoint: median survival time, dose: 0.62 mg/kg/injection, schedule: Q01DX Z (sc), vehicle: other): 160 % of control
T/C (endpoint: median survival time, dose: 0.65 mg/kg/injection, schedule: Q01DX009 (sc), vehicle: other): 152 % of control
T/C (endpoint: median survival time, dose: 0.65 mg/kg/injection, schedule: Q01DX009 (sc), vehicle: sodium bicarbonate): 150 % of control
T/C (endpoint: median survival time, dose: 0.65 mg/kg/injection, schedule: Q01DX Z (iv), vehicle: other): 111 % of control
T/C (endpoint: median survival time, dose: 0.65 mg/kg/injection, schedule: Q01DX Z (oral), vehicle: other): 105 % of control
T/C (endpoint: median survival time, dose: 0.65 mg/kg/injection, schedule: Q02DX Z (sc), vehicle: other): 105 % of control
T/C (endpoint: median survival time, dose: 0.65 mg/kg/injection, schedule: Q## X Z (sc), vehicle: other): 122 % of control
T/C (endpoint: median survival time, dose: 0.65 mg/kg/injection, schedule: Q#A X Z (sc), vehicle: other): 161 % of control
T/C (endpoint: median survival time, dose: 0.75 mg/kg/injection, schedule: Q01DX009 (ip), vehicle: sodium bicarbonate): 113 % of control
T/C (endpoint: median survival time, dose: 0.75 mg/kg/injection, schedule: Q01DX Z (ip), vehicle: water): 175 % of control
T/C (endpoint: median survival time, dose: 0.76 mg/kg/injection, schedule: Q01DX Z (oral), vehicle: other): 122 % of control
T/C (endpoint: median survival time, dose: 0.76 mg/kg/injection, schedule: Q#A X Z (oral), vehicle: other): 150 % of control
T/C (endpoint: median survival time, dose: 0.79 mg/kg/injection, schedule: Q01DX Z (oral), vehicle: other): 105 % of control
T/C (endpoint: median survival time, dose: 1.08 mg/kg/injection, schedule: Q01DX009 (sc), vehicle: sodium bicarbonate): 171 % of control
T/C (endpoint: median survival time, dose: 1.08 mg/kg/injection, schedule: Q01DX Z (oral), vehicle: other): 110 % of control
T/C (endpoint: median survival time, dose: 1.25 mg/kg/injection, schedule: Q01DX Z (sc), vehicle: other): 180 % of control
T/C (endpoint: median survival time, dose: 1.26 mg/kg/injection, schedule: Q01DX Z (oral), vehicle: other): 168 % of control and 181 % of control
T/C (endpoint: median survival time, dose: 1.26 mg/kg/injection, schedule: Q01DX Z (sc), vehicle: other): 181 % of control
T/C (endpoint: median survival time, dose: 1.26 mg/kg/injection, schedule: Q#A X Z (oral), vehicle: other): 118 % of control
T/C (endpoint: median survival time, dose: 1.3 mg/kg/injection, schedule: Q01DX Z (oral), vehicle: other): 166 % of control
T/C (endpoint: median survival time, dose: 1.31 mg/kg/injection, schedule: Q01DX Z (oral), vehicle: other): 111 % of control
T/C (endpoint: median survival time, dose: 1.4 mg/kg/injection, schedule: Q01DX Z (sc), vehicle: sodium bicarbonate): 183 % of control
T/C (endpoint: median survival time, dose: 1.8 mg/kg/injection, schedule: Q01DX009 (sc), vehicle: other): 161 % of control
T/C (endpoint: median survival time, dose: 1.8 mg/kg/injection, schedule: Q01DX009 (sc), vehicle: sodium bicarbonate): 174 % of control and 177 % of control
T/C (endpoint: median survival time, dose: 1.8 mg/kg/injection, schedule: Q01DX Z (ip), vehicle: other): 175 % of control
T/C (endpoint: median survival time, dose: 1.8 mg/kg/injection, schedule: Q## X Z (sc), vehicle: other): 111 % of control
T/C (endpoint: median survival time, dose: 2.0 mg/kg/injection, schedule: Q01DX Z (sc), vehicle: other): 175 % of control and 177 % of control and 183 % of control
T/C (endpoint: median survival time, dose: 2.08 mg/kg/injection, schedule: Q01DX Z (sc), vehicle: other): 170 % of control
T/C (endpoint: median survival time, dose: 2.1 mg/kg/injection, schedule: Q01DX Z (oral), vehicle: other): 163 % of control
T/C (endpoint: median survival time, dose: 2.1 mg/kg/injection, schedule: Q01DX Z (sc), vehicle: other): 168 % of control
T/C (endpoint: median survival time, dose: 2.33 mg/kg/injection, schedule: Q01DX Z (sc), vehicle: sodium bicarbonate): 155 % of control
T/C (endpoint: median survival time, dose: 2.5 mg/kg/injection, schedule: Q01DX Z (sc), vehicle: other): 155 % of control
T/C (endpoint: median survival time, dose: 3.0 mg/kg/injection, schedule: Q01DX009 (ip), vehicle: saline with Tween-80): 173 % of control
T/C (endpoint: median survival time, dose: 3.0 mg/kg/injection, schedule: Q01DX009 (sc), vehicle: other): 179 % of control
T/C (endpoint: median survival time, dose: 3.0 mg/kg/injection, schedule: Q01DX009 (sc), vehicle: sodium bicarbonate): 183 % of control
T/C (endpoint: median survival time, dose: 3.0 mg/kg/injection, schedule: Q01DX Z (ip), vehicle: other): 150 % of control
T/C (endpoint: median survival time, dose: 3.0 mg/kg/injection, schedule: Q01DX Z (ip), vehicle: sodium bicarbonate): 105 % of control
T/C (endpoint: median survival time, dose: 3.0 mg/kg/injection, schedule: Q01DX Z (ip), vehicle: water): 120 % of control
T/C (endpoint: median survival time, dose: 3.0 mg/kg/injection, schedule: Q01DX Z (iv), vehicle: other): 155 % of control
T/C (endpoint: median survival time, dose: 3.0 mg/kg/injection, schedule: Q01DX Z (oral), vehicle: other): 170 % of control
T/C (endpoint: median survival time, dose: 3.0 mg/kg/injection, schedule: Q## X Z (sc), vehicle: other): 111 % of control
T/C (endpoint: median survival time, dose: 3.25 mg/kg/injection, schedule: Q01DX Z (sc), vehicle: other): 158 % of control
T/C (endpoint: median survival time, dose: 3.47 mg/kg/injection, schedule: Q01DX Z (sc), vehicle: other): 150 % of control
T/C (endpoint: median survival time, dose: 3.5 mg/kg/injection, schedule: Q01DX Z (sc), vehicle: other): 163 % of control
T/C (endpoint: median survival time, dose: 3.5 mg/kg/injection, schedule: Q03DX Z (oral), vehicle: other): 100 % of control
T/C (endpoint: median survival time, dose: 3.5 mg/kg/injection, schedule: Q#A X Z (oral), vehicle: other): 109 % of control
T/C (endpoint: median survival time, dose: 4.0 mg/kg/injection, schedule: Q01DX009 (ip), vehicle: saline with Tween-80): 168 % of control
T/C (endpoint: median survival time, dose: 4.0 mg/kg/injection, schedule: Q01DX009 (ip), vehicle: saline): 184 % of control
T/C (endpoint: median survival time, dose: 4.0 mg/kg/injection, schedule: Q01DX Z (sc), vehicle: other): 150 % of control and 155 % of control
T/C (endpoint: median survival time, dose: 5.0 mg/kg/injection, schedule: Q01DX009 (sc), vehicle: sodium bicarbonate): 116 % of control and 120 % of control
T/C (endpoint: median survival time, dose: 5.0 mg/kg/injection, schedule: Q01DX017 (sc), vehicle: other): 122 % of control
T/C (endpoint: median survival time, dose: 5.0 mg/kg/injection, schedule: Q## X Z (sc), vehicle: other): 111 % of control
T/C (endpoint: median survival time, dose: 5.83 mg/kg/injection, schedule: Q01DX Z (oral), vehicle: other): 118 % of control
T/C (endpoint: median survival time, dose: 5.83 mg/kg/injection, schedule: Q03DX Z (oral), vehicle: other): 100 % of control
T/C (endpoint: median survival time, dose: 8.33 mg/kg/injection, schedule: Q01DX Z (iv), vehicle: other): 120 % of control
T/C (endpoint: median survival time, dose: 8.33 mg/kg/injection, schedule: Q01DX Z (oral), vehicle: other): 150 % of control
T/C (endpoint: median survival time, dose: 8.4 mg/kg/injection, schedule: Q## X Z (sc), vehicle: other): 122 % of control
T/C (endpoint: median survival time, dose: 9.72 mg/kg/injection, schedule: Q01DX Z (oral), vehicle: other): 118 % of control
T/C (endpoint: median survival time, dose: 14.0 mg/kg/injection, schedule: Q## X Z (sc), vehicle: other): 122 % of control
T/C (endpoint: median survival time, dose: 16.2 mg/kg/injection, schedule: Q03DX Z (oral), vehicle: other): 113 % of control
T/C (endpoint: median survival time, dose: 23.0 mg/kg/injection, schedule: Q01DX001 (sc), vehicle: other): 122 % of control
T/C (endpoint: median survival time, dose: 23.0 mg/kg/injection, schedule: Q## X Z (sc), vehicle: other): 122 % of control
T/C (endpoint: median survival time, dose: 65.0 mg/kg/injection, schedule: Q07DX Z (sc), vehicle: other): 150 % of control
T/C (endpoint: median survival time, dose: 108.0 mg/kg/injection, schedule: Q01DX001 (sc), vehicle: other): 122 % of control
T/C (endpoint: median survival time, dose: 108.0 mg/kg/injection, schedule: Q07DX Z (sc), vehicle: other): 122 % of control
T/C (endpoint: median survival time, dose: 180.0 mg/kg/injection, schedule: Q01DX001 (sc), vehicle: other): 116 % of control
T/C (endpoint: median survival time, dose: 400.0 mg/kg/injection, schedule: Q01DX009 (ip), vehicle: sodium bicarbonate): 158 % of control
